# Laboratory results as given in publication doi:10.1101/2023.06.20.545697v1 (biorxiv, 2023).
# What was measured:
# [1] = test system: Mycobacterium tuberculosis S7; assay: microbe, parasite or virus in culture; conditions: S7, 120 h, read-out: MIC99 (S7) µM
# [2] = test system: Mycobacterium tuberculosis S6; assay: microbe, parasite or virus in culture; conditions: S6, 120 h, read-out: MIC99 (S6) µM
Compound,MIC99 [1] [µM],MIC99 [2] [µM]
CC(N)c1ncnn1C (stereo not shown) [SF1],250,–
CC(C)C(N)c1ncnn1C (stereo not shown) [SF2],125,125
NCCSc1ncn[nH]1 [SF3],250,–
